Laboratory results: patent US11566017B2, “Dihydroquinazolinone compound or pharmacologically acceptable salt, and cell growth inhibitor” (RIKEN, priority 2017, dated 2023)

Columns and labels:
[1] = tested on: tubulin (microtubule polymerization); assay: Microtubule polymerization inhibition test (fluorescence kit BK011P); type: biochemical; details: 60 min
Procedure: Using a microtubule polymerization reaction measurement kit (Cytoskeleton Inc.; BK011P), the microtubule polymerization inhibitory activity of the compound (test compound) prepared in each of Examples was evaluated on the basis of the standard protocol of the kit. Solutions with concentrations of 30 μM and 150 μM were prepared by dissolving the test compound in DMSO, and used as test compound solutions (with final concentrations of 3 μM and 15 μM, respectively). DMSO was used as a negative control solution, and vincristine (final concentration: 3 μM) was used as a positive control solution.
5 μL of the test compound solution or each control solution, and 50 μL of a microtubule-containing reaction mixture (1×Buffer 1; 1 mM GTP; 15% glycerol; and tubulin with a concentration of 2 mg/mL) were added to a 96-well plate (Corning Costar Company; #3686) warmed to 37° C., and a change in fluorescence of the reaction solution was measured over 1 hour. A higher fluorescence intensity means a higher degree of progression of polymerization of microtubules. The composition of Buffer 1 and the fluorescence measurement conditions employed in the analysis are shown below.
80 mM Piperazine-N,N′-bis[2-ethanesulfonic acid] sequisodium salt; 2.0 mM Magnesium chloride; 0.5 mM Ethylene glycol-bis (β-amino-ethyl ether)N,N,N′,N′-tetra-acetic acid; 10 μM fluorescent reporter
Measurement wavelength: 360 nm (excitation wavelength) and 450 nm (emission wavelength)
Measurement time: 60 min (1 cycle/min)
Equipment used: Microplatereader SpectraMax M2 (Molecular Devices Company)

[2] = tested on: human colorectal cancer cell line COLO-320DM; assay: Cell proliferation inhibitory activity test (Celltiter-Glo); type: cell-based; details: COLO-320DM cells, 96 hours
[3] = molecular target: T1, tankyrase 1 (TNKS1) (Homo sapiens, UniProt O95271); assay: Tankyrase inhibitory activity test (ELISA, auto-poly(ADP-ribosyl)ation), tankyrase 1; type: biochemical; details: Flag tagged tankyrase 1 (1,024-1,327aa, SAM+PARP); read-out: TNKS1 (inhibitory activity against tankyrase 1, IC50)
T1 construct: tankyrase 1 (1,024-1,327aa, SAM+PARP); made in house; host or cells: cell-free protein expression system
T1 sequence (O95271 1024-1327): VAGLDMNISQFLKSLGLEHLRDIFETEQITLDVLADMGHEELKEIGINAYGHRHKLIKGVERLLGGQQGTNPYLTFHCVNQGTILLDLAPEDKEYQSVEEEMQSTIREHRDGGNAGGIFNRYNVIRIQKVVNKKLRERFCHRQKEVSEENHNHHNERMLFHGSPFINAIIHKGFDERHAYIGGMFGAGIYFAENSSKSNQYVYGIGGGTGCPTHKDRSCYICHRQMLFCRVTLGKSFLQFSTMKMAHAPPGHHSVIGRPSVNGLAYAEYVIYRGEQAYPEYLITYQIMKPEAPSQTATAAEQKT
In short: (§1)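 Cell-free-expressed Flag-tagged TNKS1 (1,024-1,327aa, SAM+PARP) or TNKS2 (613-1,116aa, ANK5+SAM+PARP) was captured on anti-FLAG plates and pre-incubated 10 min at RT with compound (pH 8.0, MgCl2, DTT). Auto-PARylation was started with NAD solution (225 μM NAD, 25 μM biotin-NAD), 45 min at 30 °C. Detection by HRP-streptavidin chemiluminescence; IC50 from residual activity.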

[4] = molecular target: T2, tankyrase 2 (TNKS2) (Homo sapiens, UniProt Q9H2K2); assay: Tankyrase inhibitory activity test (ELISA, auto-poly(ADP-ribosyl)ation), tankyrase 2; type: biochemical; details: Flag tagged tankyrase 2 (613-1,116aa, ANK5+SAM+PARP); read-out: TNKS2 (inhibitory activity against tankyrase 2, IC50)
T2 construct: tankyrase 2 (613-1,116aa, ANK5+SAM+PARP); made in house; host or cells: cell-free protein expression system
In short: as §1

[5] = racemates, 3 μM (FIG. 1A) and 15 μM (FIG. 1B)

GI50 [2] [nM]	IC50 [3] [nM]	IC50 [4] [nM]	Compound	microtubule polymerization: increase in fluorescence intensity [1, 5]	microtubule polymerization: increase in fluorescence intensity ([1]; positive control, final concentration 3 μM)
1000 to 10000	5 to 20	5 to 20	COc1ccc(-c2n[nH]nc2C2NC(=O)c3cccc4c3N2CC4)cc1 (racemic) [Example 69, 11-[5-(4-Methoxyphenyl)-2H-1,2,3-triazol-4-yl]-1,10-diazatricyclo[6.3.1.0^4,12]dodeca-4(12),5,7-trien-9-one]	slower increase in fluorescence intensity as compared to the DMSO control	–
–	–	–	CC[C@]1(O)C[C@H]2CN(CCc3c([nH]c4ccccc34)[C@@](C(=O)OC)(c3cc4c(cc3OC)N(C=O)[C@H]3[C@@](O)(C(=O)OC)[C@H](OC(C)=O)[C@]5(CC)C=CCN6CC[C@]43[C@@H]65)C2)C1 [vincristine, reference compound]	–	slower increase in fluorescence intensity as compared to the DMSO control
< 1000	5 to 20	< 5	COc1ccc(-c2n[nH]nc2C2NC(=O)c3cccc(C)c3N2)cc1 (racemic) [Example 65, 2-[5-(4-Methoxyphenyl)-2H-1,2,3-triazol-4-yl]-8-methyl-2,3-dihydro-1H-quinazolin-4-one]	slower increase in fluorescence intensity as compared to the DMSO control	–
< 1000	5 to 20	< 5	CCOc1ccc(-c2n[nH]nc2C2NC(=O)c3cccc(C)c3N2)cc1 (racemic) [Example 70, 2-[5-(4-Ethoxyphenyl)-2H-1,2,3-triazol-4-yl]-8-methyl-2,3-dihydro-1H-quinazolin-4-one]	slower increase in fluorescence intensity as compared to the DMSO control	–
≥ 10000	< 5	5 to 20	CN1c2ccccc2C(=O)NC1c1c[nH]nc1-c1ccc(OCC(F)(F)F)cc1 (stereo not shown) [Example 27, 1-Methyl-2-[3-(4-(2,2,2-trifluoromethoxy)phenyl]-1H-pyrazol-4-yl]-2,3-dihydroquinazolin-4-one]	–	–
≥ 10000	5 to 20	5 to 20	CN1c2ccccc2C(=O)NC1c1c[nH]nc1-c1ccc(C#N)cc1 (stereo not shown) [Example 31, 4-[4-(1-Methyl-4-oxo-2,3-dihydroquinazolin-2-yl)-1H-pyrazol-3-yl]benzonitrile]	–	–
≥ 10000	5 to 20	5 to 20	COc1ccc(-c2[nH]ncc2C2NC(=O)c3cccc(C)c3N2)cc1 (stereo not shown) [Example 50, 2-[5-(4-Methoxyphenyl)-1H-pyrazol-4-yl]-8-methyl-2,3-dihydro-1H-quinazolin-4-one]	–	–
≥ 10000	< 5	< 5	CN1c2ccccc2C(=O)NC1c1c[nH]nc1-c1ccc(Br)c(F)c1 (stereo not shown) [Example 43, 2-[3-(4-Bromo-3-fluorophenyl)-1H-pyrazol-4-yl]-1-methyl-2,3-dihydroquinazolin-4-one]	–	–
≥ 10000	20 to 50	5 to 20	CN1c2ccccc2C(=O)NC1c1c[nH]nc1-c1cc(F)cc(F)c1 (stereo not shown) [Example 47, 2-[3-(3,5-Difluorophenyl)-1H-pyrazol-4-yl]-1-methyl-2,3-dihydroquinazolin-4-one]	–	–
